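All cell lines were grown in 96-well plates and treated with compound for 48 hours. Abbreviation: GI50, concentration required for 50% inhibition of growth.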 The source made the active and inactive calls. Rule as the data show it: active = GI50 up to about 1.1 µM and inactive = higher.
Columns and labels:
Assay in all cases: inhibition of tumour cell growth, NCI panel, 48 h
ACHN = tested on: ACHN
CAKI-1 = tested on: CAKI-1
DU-145 = tested on: DU-145
HCC 2998 = tested on: HCC 2998
HCT-116 = tested on: HCT-116
IGROV-1 = tested on: IGROV-1
MCF7 = tested on: MCF7
MDA-N = tested on: MDA-N
Malme-3M = tested on: Malme-3M
NCI-H460 = tested on: NCI-H460
OVCAR-4 = tested on: OVCAR-4
SF-268 = tested on: SF-268
SF-295 = tested on: SF-295
SK-MEL-28 = tested on: SK-MEL-28
SNB-19 = tested on: SNB-19
SNB-75 = tested on: SNB-75
SW-620 = tested on: SW-620
TK-10 = tested on: TK-10
U-251 = tested on: U-251
UO-31 = tested on: UO-31

Compound | GI50 (ACHN) | GI50 (CAKI-1) | GI50 (DU-145) | GI50 (HCC 2998) | GI50 (HCT-116) | GI50 (IGROV-1) | GI50 (MCF7) | GI50 (MDA-N) | GI50 (Malme-3M) | GI50 (NCI-H460) | GI50 (OVCAR-4) | GI50 (SF-268) | GI50 (SF-295) | GI50 (SK-MEL-28) | GI50 (SNB-19) | GI50 (SNB-75) | GI50 (SW-620) | GI50 (TK-10) | GI50 (U-251) | GI50 (UO-31)
Cc1nn(C(=O)c2ccc(Cl)cc2)c2c1C(c1ccc(Cl)cc1)SC(=N)N2 (stereo not drawn) | > 10 µM (inactive) | > 10 µM (inactive) | > 10 µM (inactive) | > 10 µM (inactive) | > 10 µM (inactive) | > 10 µM (inactive) | > 10 µM (inactive) | > 10 µM (inactive) | > 10 µM (inactive) | > 10 µM (inactive) | > 10 µM (inactive) | > 10 µM (inactive) | > 10 µM (inactive) | > 10 µM (inactive) | > 10 µM (inactive) | > 10 µM (inactive) | > 10 µM (inactive) | > 10 µM (inactive) | > 10 µM (inactive) | 
Cc1nc(C)c(N2CCNCC2)c(O)n1 | > 100 µM (inactive) | > 100 µM (inactive) | > 100 µM (inactive) | > 100 µM (inactive) | > 100 µM (inactive) | > 100 µM (inactive) | > 100 µM (inactive) | > 100 µM (inactive) | > 100 µM (inactive) | > 100 µM (inactive) | > 100 µM (inactive) | > 100 µM (inactive) | > 100 µM (inactive) | > 100 µM (inactive) | > 100 µM (inactive) | > 100 µM (inactive) | > 100 µM (inactive) | > 100 µM (inactive) | > 100 µM (inactive) | > 100 µM (inactive)
Cc1nc(Cl)c(Cl)c(Cl)n1 | 0.324 µM (active) | < 0.01 µM (active) | 2.81 µM (inactive) | 1.42 µM (inactive) | 0.118 µM (active) | 0.173 µM (active) | 0.575 µM (active) | 1.6 µM (inactive) | 0.202 µM (active) | 1.38 µM (inactive) | 0.0331 µM (active) | 1.92 µM (inactive) | 1.86 µM (inactive) | 0.311 µM (active) | 1.39 µM (inactive) | 1.18 µM (inactive) | 0.0471 µM (active) | 1.08 µM (active) | 2.04 µM (inactive) | 
C=C(CCC/C(C)=C/C=C/[C@H](C)CCCc1ccoc1)C[C@@H]1OC(=O)[C@H](C)[C@@H]1O | 9.18 µM (inactive) | 8.99 µM (inactive) | 8.55 µM (inactive) | 10.1 µM (inactive) | 11.5 µM (inactive) | 11.2 µM (inactive) | 10.8 µM (inactive) | 9.98 µM (inactive) | 9.4 µM (inactive) | 12.5 µM (inactive) | 4.73 µM (inactive) | 9.2 µM (inactive) | 8.83 µM (inactive) | 7.41 µM (inactive) | 8.81 µM (inactive) | 8.75 µM (inactive) | 12.8 µM (inactive) | 10.6 µM (inactive) | 11.8 µM (inactive) | 7.69 µM (inactive)
NC(Cc1ccc2oc3cc(=O)c4ccccc4c-3nc2c1)C(=O)O (stereo not drawn) | 55.7 µM (inactive) | > 79.4 µM (inactive) | 15.5 µM (inactive) | 16 µM (inactive) | 36 µM (inactive) | 68.2 µM (inactive) | 2.86 µM (inactive) | 6.73 µM (inactive) | 6.52 µM (inactive) | 11.5 µM (inactive) | 67.5 µM (inactive) | 43 µM (inactive) | 22.3 µM (inactive) | 25.8 µM (inactive) | 22.3 µM (inactive) | 11.2 µM (inactive) | 29.3 µM (inactive) | 69.7 µM (inactive) | 26.2 µM (inactive) | 33.8 µM (inactive)
COc1cccc2c1C1(O)C2CCCCCCCCCC12OCCCO2 (stereo not drawn) | > 35.2 µM (inactive) | > 100 µM (inactive) | 92.7 µM (inactive) | > 34.2 µM (inactive) | 6.81 µM (inactive) | 41.3 µM (inactive) | 19.8 µM (inactive) | 35.2 µM (inactive) | > 47 µM (inactive) | 6.25 µM (inactive) | > 100 µM (inactive) | 9.82 µM (inactive) | 15.1 µM (inactive) | > 100 µM (inactive) | 27.7 µM (inactive) | > 44.1 µM (inactive) | > 46.7 µM (inactive) | 49.7 µM (inactive) | 8.63 µM (inactive) | > 43.3 µM (inactive)
COC(=O)[C@]12CSC[C@H]1C[C@H](c1ccccc1OC)N2 | > 100 µM (inactive) | > 100 µM (inactive) | > 100 µM (inactive) | > 100 µM (inactive) | > 100 µM (inactive) | 85.9 µM (inactive) | > 100 µM (inactive) | > 100 µM (inactive) | > 100 µM (inactive) | > 100 µM (inactive) | > 100 µM (inactive) | > 100 µM (inactive) | > 100 µM (inactive) | > 100 µM (inactive) | > 100 µM (inactive) | > 100 µM (inactive) | > 100 µM (inactive) | > 100 µM (inactive) | > 100 µM (inactive) | > 100 µM (inactive)
CCCCCC(O)(CCCCC)CCCCCCCCC1=C(O)C(=O)c2ccccc2C1=O | 8.85 µM (inactive) | 12 µM (inactive) | 8.53 µM (inactive) | 16.6 µM (inactive) | 3.83 µM (inactive) | 6.08 µM (inactive) | 9.62 µM (inactive) | 10.5 µM (inactive) | 11.5 µM (inactive) | 5.28 µM (inactive) | 9.79 µM (inactive) | 6.95 µM (inactive) | 7.91 µM (inactive) | 11.7 µM (inactive) | 5.75 µM (inactive) | 28.1 µM (inactive) | 7.46 µM (inactive) | 15 µM (inactive) | 7.73 µM (inactive) | 10.3 µM (inactive)
CCOC(=O)C(=CNC(=S)c1ccncc1)C(=O)OCC | > 100 µM (inactive) | > 100 µM (inactive) | > 100 µM (inactive) | > 100 µM (inactive) | > 100 µM (inactive) | > 100 µM (inactive) | > 100 µM (inactive) | > 100 µM (inactive) | > 100 µM (inactive) | > 100 µM (inactive) | > 100 µM (inactive) | > 100 µM (inactive) | > 100 µM (inactive) | > 100 µM (inactive) | > 100 µM (inactive) | 25.6 µM (inactive) | > 100 µM (inactive) | > 100 µM (inactive) | > 100 µM (inactive) | > 100 µM (inactive)
Clc1ccc(-c2cc(-c3nc4ccccc4[nH]3)no2)cc1 | 17.4 µM (inactive) | 18.3 µM (inactive) | 11.4 µM (inactive) | 18.6 µM (inactive) | 16.6 µM (inactive) | 22.6 µM (inactive) | 15 µM (inactive) | 17.5 µM (inactive) | 19.3 µM (inactive) | 16.9 µM (inactive) | 17.7 µM (inactive) | 21.3 µM (inactive) | 17.3 µM (inactive) | 19.3 µM (inactive) | 19.6 µM (inactive) | 18.3 µM (inactive) | 22.4 µM (inactive) | 21.9 µM (inactive) |  | 19 µM (inactive)
CSc1c([S+](C)[O-])c2ccccc2n1C (stereo not drawn) | > 100 µM (inactive) | > 100 µM (inactive) | > 100 µM (inactive) | > 100 µM (inactive) | > 100 µM (inactive) | > 100 µM (inactive) | > 100 µM (inactive) | > 100 µM (inactive) | > 100 µM (inactive) | > 100 µM (inactive) | > 100 µM (inactive) | > 100 µM (inactive) | > 100 µM (inactive) | > 100 µM (inactive) | > 100 µM (inactive) | 10.8 µM (inactive) | > 100 µM (inactive) | > 100 µM (inactive) |  | > 100 µM (inactive)
CNC(=S)c1nnsc1N | > 100 µM (inactive) | > 100 µM (inactive) | > 100 µM (inactive) | 29.5 µM (inactive) | 66.4 µM (inactive) | 2.99 µM (inactive) | 0.918 µM (active) | > 100 µM (inactive) | > 100 µM (inactive) | 0.71 µM (active) | > 100 µM (inactive) | > 100 µM (inactive) | > 100 µM (inactive) | > 100 µM (inactive) |  | > 100 µM (inactive) | > 100 µM (inactive) | > 100 µM (inactive) | > 100 µM (inactive) | > 100 µM (inactive)
C[C@]12CC[C@@H]3c4cc(Br)c(O)c(Br)c4CC[C@H]3[C@@H]1CC(Br)C2=O (stereo partly drawn) | 6.37 µM (inactive) | 3.7 µM (inactive) | 23.4 µM (inactive) | 1.99 µM (inactive) | 3.66 µM (inactive) | 9.23 µM (inactive) | 5.61 µM (inactive) | 5.79 µM (inactive) | 15.2 µM (inactive) | 5.82 µM (inactive) | 5.97 µM (inactive) | 5.68 µM (inactive) | 16.6 µM (inactive) | 7.28 µM (inactive) |  | 12.1 µM (inactive) | 3.36 µM (inactive) | 14.2 µM (inactive) | 3.3 µM (inactive) | 1.23 µM (inactive)
O=C(c1cc(Cl)cc(Cl)c1)N(Cc1cccnc1)C(=S)N(Cc1cccnc1)C(=O)c1cc(Cl)cc(Cl)c1 | 22.5 µM (inactive) | 41.3 µM (inactive) | 41.8 µM (inactive) | 19.3 µM (inactive) | 31.1 µM (inactive) |  | 5.69 µM (inactive) | 31.3 µM (inactive) | 55.8 µM (inactive) | 64.3 µM (inactive) | 27.3 µM (inactive) | 41.3 µM (inactive) | 55.5 µM (inactive) | 97.3 µM (inactive) | 52.6 µM (inactive) | 92.7 µM (inactive) | 27.9 µM (inactive) | 31.3 µM (inactive) | 22.2 µM (inactive) | 24.8 µM (inactive)

— ChEMBL document CHEMBL1201862, “PubChem BioAssay data set” (2004)
